Experimental data from PubChem BioAssay (NCI).
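Results reflect a 48-hour exposure of cells in 96-well plates to compound at five concentrations. TGI: concentration producing complete growth inhibition.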

What was measured:
Test in all cases: NCI anticancer screen, dose series, 48 h
ACHN renal = test system: ACHN renal
M14 melanoma = test system: M14 melanoma
EKVX NSCLC = test system: EKVX NSCLC
NCI-H226 lung = test system: NCI-H226 lung
MCF7 breast = test system: MCF7 breast
RXF 393 renal = test system: RXF 393 renal
HOP-92 NSCLC = test system: HOP-92 NSCLC
DU-145 prostate = test system: DU-145 prostate
SK-MEL-2 melanoma = test system: SK-MEL-2 melanoma
SNB-19 CNS = test system: SNB-19 CNS
CCRF-CEM leukemia = test system: CCRF-CEM leukemia
SF-268 CNS = test system: SF-268 CNS
SN12C renal = test system: SN12C renal
OVCAR-5 ovarian = test system: OVCAR-5 ovarian
NCI-H460 lung = test system: NCI-H460 lung

SMILES | TGI (ACHN renal) [µM] | TGI (M14 melanoma) [µM] | TGI (EKVX NSCLC) [µM] | TGI (NCI-H226 lung) [µM] | TGI (MCF7 breast) [µM] | TGI (RXF 393 renal) [µM] | TGI (HOP-92 NSCLC) [µM] | TGI (DU-145 prostate) [µM] | TGI (SK-MEL-2 melanoma) [µM] | TGI (SNB-19 CNS) [µM] | TGI (CCRF-CEM leukemia) [µM] | TGI (SF-268 CNS) [µM] | TGI (SN12C renal) [µM] | TGI (OVCAR-5 ovarian) [µM] | TGI (NCI-H460 lung) [µM]
C=C1C(=O)O[C@H]2C/C(C)=C/CC[C@@]3(C)O[C@](C)(CC[C@@H]3I)[C@@H](I)C[C@@H]12 | 13.6 | 27.1 | 14.3 | 2.13 | 9.61 | 12.7 | 13 | 11.8 | 25.8 | 13.5 | 13.3 | 14.4 | 16.4 | 26.2 | 13.2
CC(C)C1C(=O)N(c2c(F)c(F)c(F)c(F)c2F)C(=S)N1CCS(=O)c1ccccc1 (stereo not given) | 37.1 | 30.6 | 31.3 | 38.5 | 35.3 | 35.4 | 34.8 | 47.6 | 32.8 | 34.6 | 42.3 | 32.6 | 31 | 32.5 | 40.1
Cc1cc(C)n(CC(Cn2nc(C)cc2C)=C(/C(Cl)=C(/Cl)Nc2ccc([N+](=O)[O-])cc2)[N+](=O)[O-])n1 | 11.6 | 16.6 | 13.8 | 49.4 | 14.3 | 12.3 | 8.48 | 14 | 11.8 | 17.6 | 2.48 | 19.8 | 17.6 | 33.2 | 10.9
O=C(CC(=O)N1N=C(N2CCCCC2)CC1c1ccccc1)Nc1ccccc1 (stereo not given) | > 100 | > 100 | > 100 | > 100 | > 100 | > 100 | > 100 | > 100 | > 100 | > 100 | > 100 | > 100 | > 100 | > 100 | > 100
c1ccc2c(Cc3[nH]c4ccccc4c3Cc3c[nH]c4ccccc34)c[nH]c2c1 | > 36 | 6.71 | 11.4 | 24.5 | > 26.5 | 5.8 | 18.1 | 4.48 | 7.71 | 25.3 | 8.98 | 4.86 | 4.2 | 8.93 | 4.17
O=c1[nH]c(=O)n(COCc2ccccc2)c2ccsc12 | > 100 | > 100 | > 100 | > 100 | > 100 | > 100 | > 100 | > 100 | > 100 | > 100 | > 100 | > 100 | > 100 | > 100 | > 100
O=c1[nH]c2nnc(COc3ccc(Cl)cc3Cl)n2nc1Cc1ccccc1 | > 100 | > 100 | > 100 | 67.5 | > 100 | 44.6 | 69.5 | > 100 | > 100 | > 100 | > 100 | > 100 | > 100 | > 100 | > 100
O=P12N(CCN1c1ccccc1)CCN2c1ccccc1 | > 100 | > 100 | > 100 | > 100 | > 100 | > 100 | > 100 | > 100 | > 100 | > 100 | > 100 | > 100 | > 100 | > 100 | > 100
CC#CC(O)(C(=O)OCCCN(C)C)C1CCCCC1 (stereo not given) | > 100 | > 100 | > 100 | > 100 | > 100 | > 100 | > 100 | > 100 | > 100 | > 100 | > 100 | > 100 | > 100 | > 100 | > 100
COc1ccc(N=NC(=O)NC(Cc2ccccc2)C(=O)O)cc1 (stereo not given) | > 100 | > 100 | > 100 | > 100 | > 100 | > 100 | > 100 | > 100 | > 100 | > 100 | > 100 | > 100 | > 100 | > 100 | > 100
CN(C)CCCc1cccc2[nH]c3c(c12)CN(C)CC3 | > 100 | 33.9 | > 100 | > 100 | > 100 | > 100 | > 100 | > 100 | > 100 | > 100 | > 100 | > 100 | > 100 | > 100 | > 100
Cc1cn([C@@H]2C[C@@H]2CO)c(=O)[nH]c1=O | > 100 | > 100 | > 100 | > 100 | > 100 | > 100 | > 100 | > 100 | > 100 | > 100 | > 100 | > 100 | > 100 | > 100 | > 100
